Source: the supplement of paper PMC10307832

Assays:
Assay in all cases: relative viability (nuclei count vs DMSO), 5 days (fraction); higher = more cells survive
[1] = compound: CC1=CC=C(C=C1)C(=O)CN2C3=C(CCCC3)SC2=N [Pifithrin_alpha] + Cc1cc(Nc2cc(N3CCN(C)CC3)nc(Sc3ccc(NC(=O)C4CC4)cc3)n2)n[nH]1 [Tozasertib] (partner 0.1 µM)
Outline: (§1)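 The day after seeding in 1536-well plates, lung cancer cell lines were treated by pin tool with a single drug, or with a fixed anchor-drug dose together with five library-drug doses (not always all listed) in √10 steps. After 5 days, a combined fix-and-stain solution (final 0.05% Triton X-100, 1% formaldehyde, 1 ug/ml Hoechst) was added. Nuclei counted on 4× images gave relative viability as treated counts over vehicle counts, reported as the median of duplicate plates.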

[2] = compound: Nc1nc(Nc2ccc3c(c2)CC[C@@H](N2CCCC2)CC3)nn1-c1cc2c(nn1)-c1ccccc1CCC2 [Bemcentinib] + Nc1ncn([C@H]2C[C@H](O)[C@@H](CO)O2)c(=O)n1 [Decitabine] (partner 2 µM)
Outline: as §1

[3] = compound: Nc1nc(Nc2ccc3c(c2)CC[C@@H](N2CCCC2)CC3)nn1-c1cc2c(nn1)-c1ccccc1CCC2 [Bemcentinib] + C[C@]1(O)C[C@@H](c2nc(-c3ccc4ccc(-c5ccccc5)nc4c3)c3c(N)nccn32)C1 [Linsitinib] (partner 1 µM)
Outline: as §1

[4] = compound: CNC(=O)c1ccccc1Sc1ccc2c(/C=C/c3ccccn3)n[nH]c2c1 [Axitinib] + COc1cccc2cc(-c3nc([C@H]4CC[C@H](C(=O)O)CC4)n4ncnc(N)c34)[nH]c12 [OSI-027] (partner 0.5 µM)
Outline: as §1

| Cell Line | relative viability ([1]; first compound 1 µM) | relative viability ([1]; first compound 3.162 µM) | relative viability ([1]; first compound 10 µM) | relative viability ([1]; first compound 31.62 µM) | relative viability ([1]; first compound 100 µM) | relative viability ([2]; first compound 0.04 µM) | relative viability ([2]; first compound 0.1265 µM) | relative viability ([2]; first compound 0.4 µM) | relative viability ([2]; first compound 1.265 µM) | relative viability ([2]; first compound 4 µM) | relative viability ([3]; first compound 0.04 µM) | relative viability ([3]; first compound 0.1265 µM) | relative viability ([3]; first compound 0.4 µM) | relative viability ([3]; first compound 1.265 µM) | relative viability ([3]; first compound 4 µM) | relative viability ([4]; first compound 0.005 µM) | relative viability ([4]; first compound 0.01581 µM) | relative viability ([4]; first compound 0.05 µM) | relative viability ([4]; first compound 0.1581 µM) | relative viability ([4]; first compound 0.5 µM) |
| --- | --- | --- | --- | --- | --- | --- | --- | --- | --- | --- | --- | --- | --- | --- | --- | --- | --- | --- | --- | --- |
| 201T | 0.991 | 0.679 | 0.729 | 0.57 | 0.638 | 0.827 | 0.903 | 0.893 | 0.979 | 0.868 | 1.03 | 1.04 | 1.02 | 1.07 | 1.07 | 0.735 | 0.675 | 0.502 | 0.706 | 0.679 |
| NCI-H2085 | 0.828 | 0.467 | 0.427 | 0.478 | 0.489 | 0.539 | 0.583 | 0.498 | 0.551 | 0.554 | 0.842 | 0.977 | 0.837 | 0.9 | 0.855 | 0.827 | 0.691 | 0.857 | 0.77 | 0.66 |
| NCI-H1395 | 0.642 | 0.755 | 0.657 | 0.627 | 0.688 |  | 0.683 | 0.757 | 0.737 | 0.745 | 1.06 | 1.21 | 1.01 | 1.48 | 0.962 | 0.595 | 0.595 | 0.736 | 0.581 | 0.633 |
| NCI-H2405 | 0.708 | 0.697 | 0.573 | 0.573 | 0.627 | 0.74 | 0.717 | 0.799 | 0.821 | 0.761 | 0.874 | 0.966 | 0.965 | 0.918 | 0.896 | 0.654 | 0.666 | 0.675 | 0.643 | 0.722 |
| EMC-BAC-2 | 0.272 | 0.288 | 0.283 |  | 0.248 | 0.955 | 1 | 1.12 | 0.997 | 1.01 | 0.816 | 0.845 | 0.879 | 0.889 | 0.871 | 0.409 | 0.374 | 0.359 | 0.426 | 0.409 |
| LCLC-103H | 0.462 | 0.452 | 0.485 | 0.396 | 0.46 | 0.739 | 0.735 | 0.738 | 0.812 | 0.764 | 1.17 | 1.09 | 1.11 | 1.27 | 1.22 | 0.461 | 0.487 | 0.472 | 0.432 | 0.535 |
| BEN |  | 0.684 | 0.534 | 0.443 | 0.514 | 0.696 | 0.784 | 0.762 | 0.629 | 0.677 | 0.915 | 1.09 | 0.986 | 0.886 | 0.907 | 0.3 | 0.287 | 0.3 | 0.286 | 0.342 |
| NCI-H1755 | 0.67 | 0.449 | 0.492 | 0.424 | 0.54 | 0.724 | 0.671 | 0.726 | 0.674 | 0.718 | 1.03 | 1.02 | 1.04 | 1.04 | 1.11 | 0.772 | 0.783 | 0.724 | 0.674 | 0.894 |
| LU99A | 0.304 | 0.259 | 0.31 | 0.286 | 0.25 | 0.918 | 0.882 | 0.899 | 0.975 | 0.987 | 0.524 | 0.555 | 0.56 | 0.499 | 0.562 | 0.314 | 0.317 | 0.342 | 0.289 | 0.304 |
| NCI-H1793 |  | 0.272 | 0.277 | 0.276 | 0.218 | 0.475 | 0.495 | 0.5 | 0.549 | 0.586 | 0.662 | 1.09 | 0.81 | 1.07 | 0.992 | 0.348 | 0.198 | 0.349 | 0.289 | 0.312 |
| NCI-H460 | 0.397 | 0.485 | 0.0522 | 0.0525 | 0.126 | 0.479 | 0.595 | 0.605 | 0.483 | 0.5 | 0.907 | 1.04 | 1.08 | 0.983 | 0.86 | 0.692 | 0.603 | 0.665 | 0.645 | 0.79 |
| SK-LU-1 | 0.291 | 0.329 | 0.291 |  | 0.316 | 0.533 | 0.764 | 0.74 | 0.615 | 0.623 | 1.15 | 1.42 | 1.28 | 1.02 | 1.13 | 0.396 | 0.374 | 0.37 | 0.409 | 0.415 |
| HARA |  | 0.107 | 0.117 |  | 0.0634 | 0.578 | 0.651 | 0.561 | 0.556 | 0.518 | 1.01 | 1.07 | 1.01 | 0.994 | 1.05 | 0.445 | 0.414 | 0.666 | 0.49 | 0.802 |
| ABC-1 | 0.204 | 0.167 | 0.188 | 0.229 | 0.173 | 0.899 | 1.23 | 1.03 | 0.835 | 1.14 | 0.785 | 0.811 | 0.881 | 0.801 | 0.682 | 0.597 | 0.436 | 0.482 | 0.456 | 0.448 |
